The text below walks through data of ChEMBL document CHEMBL6182898, “Design, synthesis and bioevaluation of novel hydrazide derivatives as enhancers of immunotherapy and DNA-damage response in antitumor therapy” (Eur J Med Chem, 2025).

A value given as a limit tells only on which side of the number the result lay.

Series [1] has as its system HCT-116. Briefly: cells. Format: functional. The conditions noted are these: Homo sapiens, time 72 hrs.
The subject of series [2] is K562. Briefly: cells. In kind it is functional. The conditions noted are these: Homo sapiens, time 72 hrs.
For series [3], the system named is B16-F10. In words: cells. Format: functional. As to conditions: Mus musculus, time 72 hrs.
For series [4], the system named is 4T1. Briefly: cells. As to conditions: Mus musculus, time 72 hrs. In kind it is functional.
The subject of series [5] is SK-OV-3. Briefly: cells. In kind it is functional. As to conditions: Homo sapiens, time 72 hrs.
The next series addresses Histone deacetylase 1 (Homo sapiens, UniProt Q13547). In words: Inhibition of HDAC1 (unknown origin).
Series [6] has as its system SK-OV-3. Briefly: Antiproliferative activity against human SK-OV-3 cells incubated for 72 hrs by MTT assay. In kind it is functional, cell-based. The conditions noted are these: SK-OV-3, 72 h.
The target of the next series is Histone deacetylase 3 (Homo sapiens, UniProt O15379). In words: Inhibition of HDAC3 (unknown origin).
Series [7] deals with 4T1. Briefly: Antiproliferative activity against mouse 4T1 cells incubated for 72 hrs by MTT assay. In kind it is functional, cell-based. As to conditions: 4T1, 72 h. In general terms: Formazan colour is commonly taken as a measure of viable cells.
Series [8] deals with B16-F10. In words: Antiproliferative activity against mouse B16-F10 cells incubated for 72 hrs by MTT assay. In kind it is functional, cell-based. As to conditions: B16-F10, 72 h.
A short description of series [9]: Antiproliferative activity against human HK-2 cells incubated for 72 hrs by MTT assay.
In series [10] the test system is HCT-116. Briefly: Antiproliferative activity against human HCT-116 cells incubated for 72 hrs by MTT assay. In kind it is functional, cell-based. The conditions noted are these: HCT-116, 72 h.
Series [11] concerns the target T1, Protein deacetylase HDAC6 (Homo sapiens, UniProt Q9UBN7).
T1 sequence (Q9UBN7 whole entry): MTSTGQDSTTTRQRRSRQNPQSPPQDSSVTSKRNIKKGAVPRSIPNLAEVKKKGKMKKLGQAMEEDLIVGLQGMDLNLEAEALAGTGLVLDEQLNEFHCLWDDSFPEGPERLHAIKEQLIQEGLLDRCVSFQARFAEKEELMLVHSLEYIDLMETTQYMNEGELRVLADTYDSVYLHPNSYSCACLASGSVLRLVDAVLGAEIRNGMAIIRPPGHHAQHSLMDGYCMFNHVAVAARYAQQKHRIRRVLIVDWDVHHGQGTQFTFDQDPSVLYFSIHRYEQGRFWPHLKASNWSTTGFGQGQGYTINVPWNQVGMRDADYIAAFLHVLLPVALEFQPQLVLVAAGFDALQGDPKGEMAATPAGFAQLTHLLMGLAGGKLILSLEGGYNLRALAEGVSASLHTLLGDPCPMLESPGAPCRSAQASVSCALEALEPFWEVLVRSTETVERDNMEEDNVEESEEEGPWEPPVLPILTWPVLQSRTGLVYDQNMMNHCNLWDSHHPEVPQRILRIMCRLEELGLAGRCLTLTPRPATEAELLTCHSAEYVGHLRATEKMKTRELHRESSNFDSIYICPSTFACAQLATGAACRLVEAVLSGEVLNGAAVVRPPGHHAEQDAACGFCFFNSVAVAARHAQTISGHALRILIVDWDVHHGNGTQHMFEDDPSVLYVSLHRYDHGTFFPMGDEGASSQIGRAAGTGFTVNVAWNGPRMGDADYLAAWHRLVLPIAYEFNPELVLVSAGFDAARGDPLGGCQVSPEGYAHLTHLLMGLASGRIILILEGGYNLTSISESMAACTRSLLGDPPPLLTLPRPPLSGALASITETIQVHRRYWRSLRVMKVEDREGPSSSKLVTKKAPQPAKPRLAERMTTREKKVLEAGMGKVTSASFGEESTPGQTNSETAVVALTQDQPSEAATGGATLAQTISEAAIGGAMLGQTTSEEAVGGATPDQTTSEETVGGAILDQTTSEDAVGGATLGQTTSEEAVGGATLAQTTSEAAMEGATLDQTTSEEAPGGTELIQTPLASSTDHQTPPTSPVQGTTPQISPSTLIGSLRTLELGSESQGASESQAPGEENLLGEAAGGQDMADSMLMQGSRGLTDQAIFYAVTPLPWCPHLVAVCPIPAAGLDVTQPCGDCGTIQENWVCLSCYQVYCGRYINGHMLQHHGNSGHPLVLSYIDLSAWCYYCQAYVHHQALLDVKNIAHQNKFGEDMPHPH
In words: Inhibition of HDAC6 (unknown origin).

For series [12], the system named is K562. In words: Antiproliferative activity against human K562 cells incubated for 72 hrs by CCK8 assay. Format: functional, cell-based. The conditions noted are these: K562, 72 h.
A further series concerns the target T2, Histone deacetylase 8 (Homo sapiens, UniProt Q9BY41).
T2 sequence (Q9BY41 whole entry): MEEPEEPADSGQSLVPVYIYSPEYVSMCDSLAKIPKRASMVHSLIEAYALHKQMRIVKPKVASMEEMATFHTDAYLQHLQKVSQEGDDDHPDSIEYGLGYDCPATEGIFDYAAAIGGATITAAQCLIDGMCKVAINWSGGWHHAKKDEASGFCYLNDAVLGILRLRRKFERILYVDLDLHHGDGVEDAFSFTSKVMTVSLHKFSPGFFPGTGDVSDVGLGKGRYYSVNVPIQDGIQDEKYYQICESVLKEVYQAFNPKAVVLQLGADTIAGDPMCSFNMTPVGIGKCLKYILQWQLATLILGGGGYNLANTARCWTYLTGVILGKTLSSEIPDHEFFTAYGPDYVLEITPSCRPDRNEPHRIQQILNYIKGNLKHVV
In words: Inhibition of HDAC8 (unknown origin).

Chain of Histone deacetylase 1 (Q13547 whole entry): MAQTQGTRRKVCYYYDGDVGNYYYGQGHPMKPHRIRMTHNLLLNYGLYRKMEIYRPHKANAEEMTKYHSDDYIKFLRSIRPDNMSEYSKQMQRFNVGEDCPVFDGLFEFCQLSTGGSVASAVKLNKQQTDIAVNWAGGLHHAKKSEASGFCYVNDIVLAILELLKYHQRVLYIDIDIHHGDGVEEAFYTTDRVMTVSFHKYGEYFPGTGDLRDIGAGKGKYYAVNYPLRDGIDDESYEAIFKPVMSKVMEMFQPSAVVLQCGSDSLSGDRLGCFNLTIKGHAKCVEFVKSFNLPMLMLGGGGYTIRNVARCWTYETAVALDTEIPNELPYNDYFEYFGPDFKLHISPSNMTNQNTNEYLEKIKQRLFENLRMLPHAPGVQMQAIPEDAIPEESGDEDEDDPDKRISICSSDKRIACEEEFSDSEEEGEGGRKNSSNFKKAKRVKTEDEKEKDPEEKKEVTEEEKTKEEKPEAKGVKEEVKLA
Chain of Histone deacetylase 3 (O15379 whole entry): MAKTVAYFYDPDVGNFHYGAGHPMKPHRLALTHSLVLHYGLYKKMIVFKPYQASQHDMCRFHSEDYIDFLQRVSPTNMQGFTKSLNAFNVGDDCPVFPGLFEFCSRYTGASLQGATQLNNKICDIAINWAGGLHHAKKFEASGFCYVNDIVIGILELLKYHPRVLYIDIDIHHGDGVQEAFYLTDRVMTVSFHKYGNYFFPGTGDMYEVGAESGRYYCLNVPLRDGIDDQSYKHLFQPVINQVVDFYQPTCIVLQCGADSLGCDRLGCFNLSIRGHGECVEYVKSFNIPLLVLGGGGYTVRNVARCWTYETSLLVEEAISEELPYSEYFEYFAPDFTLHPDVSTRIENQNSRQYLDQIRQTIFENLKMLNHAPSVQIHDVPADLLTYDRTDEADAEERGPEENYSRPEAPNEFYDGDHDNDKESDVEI

As a reminder, the inhibition is the share of the control response that was lost under treatment. Higher therefore signals strong suppression. As for `CCCNNC(=O)c1ccc(NC(=O)c2cnc(-c3ccc(F)cc3)s2)cc1`, the inhibition at 10 µM was less than 50% in the series on HCT-116 [1]; 69.6% in the series with K562 [2]; less than 50% with B16-F10 [3]; less than 20% with 4T1 [4]; less than 50% in the series on SK-OV-3 [5].
With `CC(C)=CCCC(C)CNNC(=O)CCCCCCNC(=O)c1cnc(-c2ccc(NC(=O)OC(C)(C)C)cc2)s1` (stereo unspecified), the inhibition at 10 µM came to 58.7% with HCT-116 [1]; 53.5% with K562 [2]; 66.8% with B16-F10 [3]; 40.5% in the series on 4T1 [4]; 57.2% in the series with SK-OV-3 [5].
Take `CCCNNC(=O)CCCCCNC(=O)c1cnc(-c2ccc(F)cc2F)s1`: the inhibition at 10 µM in the series on HCT-116 [1] was 62.9%; with K562 [2], 59.8%; in the series with B16-F10 [3], less than 50%; in the series with 4T1 [4], 21.7%; with SK-OV-3 [5] it was less than 50%.
A word on the IC50: it is the concentration needed to halve the response being measured. A lower IC50 goes with inhibition by little substance. On to `CCCNNC(=O)CCCCCCNC(=O)c1cnc(-c2ccc3[nH]ccc3c2)s1`, for which the IC50 against Histone deacetylase 1 stood at 1570 nM; in the series with SK-OV-3 [6], 5.06 µM; on Histone deacetylase 3 it was 420 nM; with 4T1 [7], 9.82 µM; in the series on B16-F10 [8], 9.36 µM; in the series on HCT-116 [10] it was 8.15 µM. Further, the IC50 in series [11] was more than 10 µM; in the series on K562 [12] it was 1460 nM; on Histone deacetylase 8 it was more than 10 µM. For the same compound, the IC50 at 72 h in series [9] turned out to be 10.1 µM.
In the case of `CCCNNC(=O)CCCCCNC(=O)c1cnc(-c2ccc(NC(=O)OC(C)(C)C)cc2)s1`, the inhibition at 10 µM in the series on HCT-116 [1] is 53.6%; in the series on K562 [2] it was 68.9%; with B16-F10 [3] it was less than 50%; with 4T1 [4], 27.1%; with SK-OV-3 [5], less than 50%.
In the case of `CC(C)(C)OC(=O)Nc1ccc(-c2ncc(C(=O)NCCCCCCC(=O)NNCC3CC3)s2)cc1`, the inhibition at 10 µM with HCT-116 [1] came out at 85.8%; in the series on K562 [2] it was 71.3%; in the series with B16-F10 [3], 52.1%; in the series with 4T1 [4] it was 21.4%; in the series on SK-OV-3 [5] it was 57.5%.
For `CCCNNC(=O)CCCCCNC(=O)c1cnc(-c2cccc3ccccc23)s1`, in that order: 60.6%, 67.5%, less than 50%, less than 20% and less than 50%.
For `CCCNNC(=O)CCCCCCNC(=O)c1cnc(-c2cccc(C)c2)s1`, in that order: 61.7%, less than 50%, less than 50%, less than 20% and less than 50%.
Turning to `CCCNNC(=O)CCCCCCNC(=O)c1cnc(-c2c[nH]c3ccccc23)s1`, the inhibition at 10 µM with HCT-116 [1] is 72.7%; with K562 [2], 67.7%; in the series on B16-F10 [3], less than 50%; with 4T1 [4], 21.8%; with SK-OV-3 [5], 53%.
For `CCCNNC(=O)CCCCCNC(=O)c1cnc(-c2ccc(Cl)cc2)s1`, in that order: 58.2%, less than 50%, less than 50%, 21.5% and less than 50%.
For `CCCNNC(=O)CCCCCNC(=O)c1cnc(-c2c[nH]c3ccccc23)s1`, in that order: 36.5%, less than 50%, less than 50%, less than 20% and less than 50%.
In the same order, the values of `CCCNNC(=O)CCCCCNC(=O)c1cnc(-c2ccc(Cl)cc2Cl)s1` are 54%, less than 50%, less than 50%, less than 20% and less than 50%.
As for `CCCNNC(=O)CCCCCNC(=O)c1cnc(-c2cccc(OC)c2)s1`, the inhibition at 10 µM in the series on HCT-116 [1] is less than 50%; in the series on K562 [2], less than 50%; in the series on B16-F10 [3], less than 50%; in the series on 4T1 [4], less than 20%; in the series on SK-OV-3 [5], less than 50%.
Consider `CCCCCCCCCNNC(=O)CCCCCCNC(=O)c1cnc(-c2ccc(NC(=O)OC(C)(C)C)cc2)s1`, for which the inhibition at 10 µM with HCT-116 [1] was 59.7%; in the series with K562 [2], 55.2%; in the series with B16-F10 [3], less than 50%; with 4T1 [4], less than 20%; in the series with SK-OV-3 [5] it was 45%.
In the same order, the values of `CCCNNC(=O)CCCCCNC(=O)c1cnc(-c2ccc(OC(F)(F)F)cc2)s1` are 62.9%, 69.5%, less than 50%, 31.9% and less than 50%.
In the same order, the values of `CCCNNC(=O)CCCCCNC(=O)c1cnc(-c2ccc(C(F)(F)F)cc2)s1` are less than 50%, less than 50%, 59.6%, 38.9% and 70.9%.
For `CC(C)CNNC(=O)CCCCCCNC(=O)c1cnc(-c2ccc(NC(=O)OC(C)(C)C)cc2)s1`, in that order: 59%, 55.9%, 51%, 23.9% and 39.2%.
On to `CCCNNC(=O)CCCCCNC(=O)c1cnc(-c2ccc3ccccc3c2)s1`, for which the inhibition at 10 µM is 58.5% in the series with HCT-116 [1]; 59.8% in the series on K562 [2]; less than 50% in the series on B16-F10 [3]; less than 20% in the series with 4T1 [4]; less than 50% in the series with SK-OV-3 [5].
Turning to `CCCNNC(=O)CCCCCCNC(=O)c1cnc(-c2ccc3c(c2)OCO3)s1`, the inhibition at 10 µM in the series with HCT-116 [1] came to 68.4%; with K562 [2], 68.9%; in the series with B16-F10 [3], 59.6%; in the series on 4T1 [4], 22.1%; in the series on SK-OV-3 [5] it was 86.8%.
For `C=CCNNC(=O)CCCCCCNC(=O)c1cnc(-c2ccc(NC(=O)OC(C)(C)C)cc2)s1`, in that order: 58.2%, 63.7%, 53.5%, 61.2% and 64.6%.
In the same order, the values of `CCCNNC(=O)CCCCCCNC(=O)c1cnc(-c2ccc(OC(F)(F)F)c(OC(F)(F)F)c2)s1` are 88.8%, 69.5%, 54.5%, 20.5% and 62.7%.
Turning to `Nc1ccccc1NC(=O)c1ccc(CNC(=O)OCc2cccnc2)cc1` [ENTINOSTAT], the inhibition at 10 µM is 94.6% in the series on HCT-116 [1]; 70.5% with K562 [2]; 46.2% with B16-F10 [3]; 43.4% in the series with 4T1 [4]; 50.2% in the series with SK-OV-3 [5]. The half-maximal inhibitory concentration (IC50) in the series on SK-OV-3 [6] worked out at 8.33 µM; in the series on 4T1 [7], 8.82 µM; in the series on B16-F10 [8], 11 µM; in the series with HCT-116 [10], 0.91 µM; in the series on K562 [12] it was 790 nM. The compound further came in with an IC50 at 72 h in series [9] of 13.5 µM.
